Converted amounts (≈) assume the structure as drawn. Residues, ends and D or L forms follow the SMILES beside them.
Tests used:
[1] = tested on: S. mutans; assay: Time-kill assay; format: cell-based, Streptococcus mutans; settings: 0.12%, 10^6 CFU/mL, CFU counts
Method: The time-kill kinetics of HBAMP against S. mutans was determined by time-kill assay as previously described. S. mutans was grown to exponential phase and diluted to 10^6 CFU/mL in growth medium. […] Bacterial suspension in other tubes that were added with 0.12% CHX and PBS served as the positive and blank control groups, respectively. At time points of 0, 10, 20, 30, 40, 60, and 90 min, 10 μL of cell suspension was collected, serially diluted in PBS and then 50 μL of aliquots were plated onto BHI agar plates. Colony forming units were counted after the plates were incubated anaerobically at 37 °C for 24 h.

[2] = tested on: S. mutans biofilm; format: cell-based; settings: 250 μg/ml (2× MIC), 10 min treatment of 12 h biofilm on HAp
Method: S. mutans biofilms were grown on the surface of HAp disks that were placed in 24-well plate. Each well of the plate was inoculated with 2 ml of S. mutans in BHIS (10^6 CFU/mL). After incubation anaerobically at 37 °C for 12 h, the HAp disks were washed twice with sterile deionized water and then respectively treated with HBAMP (2× and 4× MIC) and CHX (0.12%) for 10 min. Then biofilms were stained for 20 min in the dark using the LIVE/DEAD® BacLight^TM Bacterial Viability Kit. The biofilm without treatment served as control. Stained biofilms were photographed by CLSM with a 20× objective. Three independent biofilm experiments were performed.

[3] = tested on: Lactobacillus acidophilus (ATCC 4356); format: cell-based; settings: ATCC 4356, 24 h
Method: (§1) Streptococcus sanguinis (ATCC 10556), Actinomyces viscosus (ATCC 19246), Streptococcus mutans (ATCC 25175), were grown in Brain Heart Infusion (BHI; Difco, Detroit, MI, USA) culture medium. Lactobacillus acidophilus (ATCC 4356) was grown in de Man, Rogosa and Sharpe (MRS; Difco, Detroit, MI, USA) culture medium. BHIS (BHI with 2% sucrose) was used for growing S. mutans biofilm. All cultures were grown anaerobically (80% N2, 10% H2 and 10% CO2) at 37 °C. According to the growth curve of bacteria, the exponentially growing cells were harvested by centrifugation and diluted in BHI or MRS to 10^6 CFU/mL based on a regression line derived from McFarland turbidity standards (Pro-Lab Diagnostics, Richmond Hill, ON, Canada).
(§2) MIC and MBC assays were conducted according to the consensus guidelines developed by the Clinical and Laboratory Standards Institute (CLSI)[24]. Two-fold serial dilutions of peptides were prepared in culture medium at a volume of 200 μl/well in 96-well plates and the final concentrations of peptides ranged from 31.25 μg/ml to 2000 μg/ml. Chlorhexidine (0.12%) and culture medium were included as the positive and control group, respectively. Then each well was seeded with 20 μL of bacterial cell suspension (10^6 CFU/mL). The plates were incubated anaerobically at 37 °C for 24 h. The MIC was defined as the lowest concentration of peptide that prevents visible growth of the bacteria tested. […] The MBC was defined as the lowest concentration of peptide resulting in no colony formation on agar plates. All determinations were made from triplicate experiments.

[4] = tested on: Actinomyces viscosus (ATCC 19246); format: cell-based; settings: ATCC 19246, 24 h
Method: as §1, §2

[5] = tested on: Streptococcus sanguinis (ATCC 10556); format: cell-based; settings: ATCC 10556, 24 h
Method: as §1, §2

[6] = tested on: Streptococcus mutans (ATCC 25175); format: cell-based; settings: ATCC 25175, 24 h
Method: as §1, §2

[7] = in vitro; format: in vitro ADME; settings: both sexes, human, cerebrospinal or other body fluid
Method: The protocols in this section were approved by the Ethics Committee of Zhongshan Hospital, Xiamen University. The methods employed were performed in accordance with the approved guidelines. After acquiring informed consent, human saliva was collected from individual volunteers (two males and two females; Minimum age: 22; maximum age: 28) in the morning prior to oral cleaning. The collected saliva samples were centrifuged at 12,000 rpm for 20 min. The supernatant was collected and filtered through the […] membrane filter to remove any debris. HBAMP was added into the human saliva to achieve the final concentration of 500 μg/ml. The saliva with HBAMP was incubated at 37 °C. At 0, 5, 20 and 60 min, 1 ml samples were taken from the total sample and served in the specific sample bottles, the machine will automatically extract samples from the bottles to detect. The samples were analysed by reversed-phase HPLC using Zorbax Eclipse XDB-C18 analytical column (150 × 4.6 mm, Agilent Technologies, Inc., Santa Clara, CA, USA) protected by a XDB-C18 guard column (4 × 4 mm). For the elution of HBAMP, a flow rate of 1.2 mL/min and a linear gradient from 88:12 to 65:35 (0.1% TFA in water: 0.1% TFA in acetonitrile) for 10 min were employed. Total run time of HPLC-UV (215 nm) analysis was 15 min and the injection volume was set at 40 μL.

[H]/N=C(\N/C(=N/[H])NCCCCCCNC(=N)NC(=N)Nc1ccc(Cl)cc1)Nc1ccc(Cl)cc1 [CHX, chlorhexidine]
time to kill S. mutans [1]: ≤ 10 min

CC(C)C[C@H](NC(=O)[C@H](Cc1ccc(O)cc1)NC(=O)[C@H](Cc1c[nH]cn1)NC(=O)[C@H](CC(N)=O)NC(=O)[C@@H](N)CC(N)=O)C(=O)N1CCC[C@H]1C(=O)N[C@@H](CCCNC(=N)N)C(=O)NCC(=O)NCC(=O)NCC(=O)N[C@@H](CCCCN)C(=O)N[C@@H](CCCCN)C(=O)N[C@H](C(=O)N[C@H](C(=O)N[C@@H](Cc1ccccc1)C(=O)N[C@@H](Cc1c[nH]c2ccccc12)C(=O)N[C@H](C(=O)N[C@@H](CCCCN)C(=O)N[C@@H](Cc1ccccc1)C(=O)N[C@@H](CCCCN)C(=O)O)C(C)C)C(C)C)C(C)C [HBAMP] (H-NNHYLPRGGGKKVVFWVKFK-OH)
bacteria killed in S. mutans biofilm [2]: approximately 44.7% | MBC, L. acidophilus [3]: 250 µg/mL (≈ 105 µM) | MIC, L. acidophilus [3]: 125 µg/mL (≈ 52.6 µM) | MBC, A. viscosus [4]: 500 µg/mL (≈ 211 µM) | MIC, A. viscosus [4]: 250 µg/mL (≈ 105 µM) | MBC, S. sanguinis [5]: 2000 µg/mL (≈ 842 µM) | MIC, S. sanguinis [5]: 500 µg/mL (≈ 211 µM) | MBC, S. mutans [6]: 250 µg/mL (≈ 105 µM) | MIC, S. mutans [6]: 125 µg/mL (≈ 52.6 µM) | remaining at 1 h, 500 μg/ml [7]: 80.5%

CC(C)[C@H](NC(=O)[C@H](Cc1c[nH]c2ccccc12)NC(=O)[C@H](Cc1ccccc1)NC(=O)[C@@H](NC(=O)[C@@H](NC(=O)[C@H](CCCCN)NC(=O)[C@@H](N)CCCCN)C(C)C)C(C)C)C(=O)N[C@@H](CCCCN)C(=O)N[C@@H](Cc1ccccc1)C(=O)N[C@@H](CCCCN)C(=O)O [KSLW, reference compound] (H-KKVVFWVKFK-OH)
MBC, L. acidophilus [3]: 125 µg/mL (≈ 95.5 µM) | MIC, L. acidophilus [3]: 62.5 µg/mL (≈ 47.8 µM) | MBC, A. viscosus [4]: 500 µg/mL (≈ 382 µM) | MIC, A. viscosus [4]: 125 µg/mL (≈ 95.5 µM) | MBC, S. sanguinis [5]: 2000 µg/mL (≈ 1530 µM) | MIC, S. sanguinis [5]: 250 µg/mL (≈ 191 µM) | MBC, S. mutans [6]: 125 µg/mL (≈ 95.5 µM) | MIC, S. mutans [6]: 62.5 µg/mL (≈ 47.8 µM)

Source: article PMC5133556, “Design of a hydroxyapatite-binding antimicrobial peptide with improved retention and antibacterial efficacy for oral pathogen control” (Scientific Reports, 2016)
